“Also recorded” adds a separate entry of the source.

For data set [1], the target named is T1, OATP1B3 (Homo sapiens, UniProt Q9NPD5).
T1 sequence (Q9NPD5 1-702): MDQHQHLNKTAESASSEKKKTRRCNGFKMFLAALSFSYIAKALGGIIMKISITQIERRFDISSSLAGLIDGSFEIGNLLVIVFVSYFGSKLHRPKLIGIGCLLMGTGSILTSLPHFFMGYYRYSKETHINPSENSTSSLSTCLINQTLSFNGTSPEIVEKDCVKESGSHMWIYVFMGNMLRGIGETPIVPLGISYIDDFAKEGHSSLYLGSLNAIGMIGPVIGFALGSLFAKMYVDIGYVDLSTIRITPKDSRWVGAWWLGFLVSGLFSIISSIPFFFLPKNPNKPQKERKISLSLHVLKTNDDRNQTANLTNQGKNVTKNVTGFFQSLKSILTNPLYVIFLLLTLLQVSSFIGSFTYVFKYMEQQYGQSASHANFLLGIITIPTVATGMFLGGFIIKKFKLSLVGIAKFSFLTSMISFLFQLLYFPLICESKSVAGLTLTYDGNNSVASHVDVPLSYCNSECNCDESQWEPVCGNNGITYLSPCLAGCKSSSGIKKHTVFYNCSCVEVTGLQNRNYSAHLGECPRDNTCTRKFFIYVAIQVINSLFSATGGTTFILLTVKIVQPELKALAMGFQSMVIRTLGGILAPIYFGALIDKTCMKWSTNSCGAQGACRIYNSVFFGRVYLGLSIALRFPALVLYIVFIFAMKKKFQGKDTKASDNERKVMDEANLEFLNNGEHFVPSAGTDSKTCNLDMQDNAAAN
The note with it: uptake transporter; cited from earlier work.

Data set [2] in a line: Phase-1 drug-drug interaction study, plasma PK in healthy volunteers. As to the method: A drug-drug interaction study (DDI) study is a study designed to investigate whether a drug alters the pharmacokinetics of another drug or drugs or their metabolites.
Compound (III) Subjects received 800 mg of Compound (III) once daily from Days 1-3, Days 11-13, and Days 21-23. PK blood samples for determination of Compound (III) and metabolite concentrations were collected in reference to the Day 3, Day 13, and Day 23 doses.
Simeprevir—Subjects received 150 mg of Simeprevir (SMV) once daily from Days 4-23. PK blood samples for determination of SMV concentrations were collected in reference to the Day 10, Day 13, Day 20, and Day 23 doses.
Odalasvir—Subjects received a loading dose of 150 mg on Day 14, and 50 mg of Odalasvir once daily from Days 15-23. PK blood samples for determination of Odalasvir concentrations were collected in reference to the Day 20 and Day 23 doses.
Compound (III)—Subjects received 800 mg of Compound (III) once daily from Days 1-3, Days 11-13 and Days 21-23. PK blood samples for determination of Compound (III) and metabolite concentrations were collected in reference to the Day 3, Day 13, and Day 23 doses.
Simeprevir—Subjects receive 150 mg of SMV once daily from Days 4-23. PK blood samples for determination of SMV concentrations were collected in reference to the Day 20 and Day 23 doses.
Odalasvir—Subjects receive a loading dose of 150 mg on Day 4, and 50 mg of Odalasvir once daily from Days 5-23. PK blood samples for determination of Odalasvir concentrations were collected in reference to the Day 10, Day 13, Day 20, and Day 23 doses.
A primary objective was to evaluate the effect of multiple oral doses of Odalasvir (alone), Simeprevir (alone), and Odalasvir and Simeprevir on the multiple oral dose PK of Compound (III) (and certain metabolites thereof, such as the major metabolites in systemic circulation) in healthy volunteers. Other objectives were to evaluate the safety and tolerability of multiple oral doses of Compound (III) when administered alone and in combination with single and multiple oral doses of Odalasvir and/or Simeprevir in healthy volunteers; to determine the potential effect of Compound of Compound (III) and/or Odalasvir on the steady-state PK of Simeprevir in healthy volunteers; to determine the potential effect of Compound of Compound (III) and/or Simeprevir on the steady state PK of Odalasvir in healthy volunteers.
Various other PK parameters were estimated including: […], t1/2, Tmax, Tlast, CL/F, Vz/F, and λz.
Odalasvir: 150 mg loading dose; 50 mg for the remainder of the study period.

In data set [3] the target is T2, OATP1B1 (Homo sapiens, UniProt Q9Y6L6).
T2 sequence (Q9Y6L6 1-691): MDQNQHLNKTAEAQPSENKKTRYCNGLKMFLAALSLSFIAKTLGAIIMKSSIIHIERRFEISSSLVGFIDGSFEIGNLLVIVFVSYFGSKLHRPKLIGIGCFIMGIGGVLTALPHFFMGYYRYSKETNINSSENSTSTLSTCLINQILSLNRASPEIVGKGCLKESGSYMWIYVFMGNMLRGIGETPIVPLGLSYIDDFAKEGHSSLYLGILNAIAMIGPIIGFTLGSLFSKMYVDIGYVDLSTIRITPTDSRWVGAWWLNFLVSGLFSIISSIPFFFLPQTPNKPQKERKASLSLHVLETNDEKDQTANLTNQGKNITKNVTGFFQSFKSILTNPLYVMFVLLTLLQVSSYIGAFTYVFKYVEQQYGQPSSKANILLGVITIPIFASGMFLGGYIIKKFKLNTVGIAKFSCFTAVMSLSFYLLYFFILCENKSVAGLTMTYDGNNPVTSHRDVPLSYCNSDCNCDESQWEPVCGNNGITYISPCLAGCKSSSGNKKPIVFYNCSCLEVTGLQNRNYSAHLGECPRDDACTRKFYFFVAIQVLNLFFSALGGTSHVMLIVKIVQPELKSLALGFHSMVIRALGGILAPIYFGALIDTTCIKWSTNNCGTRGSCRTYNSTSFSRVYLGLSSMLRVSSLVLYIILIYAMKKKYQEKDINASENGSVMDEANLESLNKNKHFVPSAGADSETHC
The note with it: uptake transporter; cited from earlier work.

As to `COC(=O)N[C@H](C(=O)N1[C@H](c2nc3cc(-c4cc5ccc4CCc4ccc(c(-c6ccc7[nH]c([C@@H]8C[C@@H]9CCCC[C@@H]9N8C(=O)[C@@H](NC(=O)OC)C(C)C)nc7c6)c4)CC5)ccc3[nH]2)C[C@@H]2CCCC[C@@H]21)C(C)C` [ODV, methyl [(2S)-1-[(2S,3aS,7aS)-2-[6-[11-[2-[(2S,3aS,7aS)-1-[(2S)-2-[(methoxycarbonyl)amino]-3-methylbutanoyl]octahydro-1H-indol-2-yl]-1H-benzimidazol-6-yl]tricyclo[8.2.2.2^4,7]hexadeca-1(12),4,6,10,13,15-hexaen-5-yl]-1H-benzimidazol-2-yl]octahydro-1H-indol-1-yl]-3-methyl-1-oxobutan-2-yl]carbamate], the “in vitro inhibition of OATP1B3” value in data set [1] was “no inhibition”. Further, in data set [2] (DDI study results), the “exposure increase caused by SMV” value came out at 1.6 × and the “exposure increase, effect of the three Compounds” value is listed as 1.5 ×. Moreover, the “increase of exposure with the combination of the three drugs” value in data set [2] (human in vivo study) is 1.5 times. Further, the “effect of Compound (III) on exposure / bioavailability” value in data set [2] (human subjects) was “no apparent effect; also recorded: does not alter”. In addition, in data set [3], the “in vitro inhibition of OATP1B1” value is reported as “no inhibition”.

As for `CC(C)OC(=O)C(C)N[P@](=O)(OC[C@@]1(F)O[C@@H](n2ccc(=O)[nH]c2=O)[C@](C)(O)[C@@H]1O)Oc1ccccc1` (stereo in doubt) [Compound (III)], in data set [1], the “in vitro inhibition of OATP1B3” value is listed as “no in vitro inhibition”. For the same molecule, in data set [2] (DDI study results), the “exposure increase caused by Odalasvir” value was found to be 4 × and the “exposure increase caused by SMV” value is reported as 3 ×. For the same molecule, the “increase of exposure with the combination of the three drugs” value in data set [2] (both, human, in vivo) is recorded as 7-8 times. The “bioavailability of Compound (III) when SMV and ODV are co-administered, compared to Compound (III) alone” value in data set [2] (human subjects) is on record as “approximately 8 fold”. Also, the “in vitro inhibition of OATP1B1” value in data set [3] is reported as “no in vitro inhibition”.

The values above are taken from patent US20180021361A1, “COMBINATION DRUG TREATMENT FOR HEPATITIS C INFECTION” (JANSSEN PHARMACEUTICALS, INC., priority 2016, published 2018).
